# Data from patent US6610665B1 (Smithkline Beecham Corporation, priority 1998, dated 2003).
# Assays:
# Type in all cases: cell-based
# Conditions in all cases: ratio to NECA; CHO cells, SPAP readout
# [1] = target: T1, adenosine 1 receptor (Homo sapiens, UniProt P30542); assay: Agonist activity, CHO cells transfected with human adenosine receptor and CRE-SPAP reporter; forskolin-enhanced cAMP (A1)
# T1 construct: expressed in transfected cells; host or cells: CHO cells
# T1 sequence (P30542 1-326): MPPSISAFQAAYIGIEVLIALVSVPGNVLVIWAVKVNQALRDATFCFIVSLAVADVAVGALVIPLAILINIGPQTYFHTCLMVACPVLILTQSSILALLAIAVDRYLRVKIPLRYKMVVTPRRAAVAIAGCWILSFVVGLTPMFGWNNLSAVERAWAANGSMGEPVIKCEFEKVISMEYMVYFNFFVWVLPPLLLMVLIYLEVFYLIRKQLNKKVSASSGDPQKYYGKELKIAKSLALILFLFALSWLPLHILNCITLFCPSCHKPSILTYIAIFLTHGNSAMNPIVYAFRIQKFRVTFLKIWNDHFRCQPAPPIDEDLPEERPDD
# Procedure: (§1) (1) Agonist activity against adenosine 2a, adenosine 1 and adenosine 3 receptor subtypes.
# (§2) Agonist selectivity of compounds against other human adenosine receptors is determined using Chinese hamster ovary (CHO) cells transfected with the gene for the relevant human adenosine receptor following a method based on that of Castanon and Spevak, 1994. The CHO cells are also transfected with cyclic AMP response elements promoting the gene for secreted placental alkaline phosphatase (SPAP) (Wood, 1995). The effect of test compounds may be determined by their effects on basal levels of CAMP (A2a) or on forskolin-enhanced cAMP (A1 and A3) as reflected by changes in levels of SPAP. EC50 values for compounds may then be determined as a ratio to that of the non-selective agonist N-ethyl carboxamide adenosine (NECA).
# [2] = target: T2, adenosine 3 receptor (Homo sapiens, UniProt P0DMS8); assay: Agonist activity, CHO cells transfected with human adenosine receptor and CRE-SPAP reporter; forskolin-enhanced cAMP (A3)
# T2 construct: expressed in transfected cells; host or cells: CHO cells
# T2 sequence (P0DMS8 1-318): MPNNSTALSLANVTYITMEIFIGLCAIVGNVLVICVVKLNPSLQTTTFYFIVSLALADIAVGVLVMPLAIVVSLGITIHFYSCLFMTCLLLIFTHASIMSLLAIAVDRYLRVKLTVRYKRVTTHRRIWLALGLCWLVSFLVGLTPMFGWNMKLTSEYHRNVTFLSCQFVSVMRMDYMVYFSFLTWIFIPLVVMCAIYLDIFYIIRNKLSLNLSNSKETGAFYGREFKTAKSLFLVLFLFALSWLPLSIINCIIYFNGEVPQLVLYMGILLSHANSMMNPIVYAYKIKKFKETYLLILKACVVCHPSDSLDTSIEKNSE
# Procedure: as §1, §2
# [3] = target: T3, adenosine 2a receptor (Homo sapiens, UniProt P29274); assay: Agonist activity, CHO cells transfected with human adenosine receptor and CRE-SPAP reporter; basal cAMP (A2a)
# T3 construct: expressed in transfected cells; host or cells: CHO cells
# T3 sequence (P29274 whole entry): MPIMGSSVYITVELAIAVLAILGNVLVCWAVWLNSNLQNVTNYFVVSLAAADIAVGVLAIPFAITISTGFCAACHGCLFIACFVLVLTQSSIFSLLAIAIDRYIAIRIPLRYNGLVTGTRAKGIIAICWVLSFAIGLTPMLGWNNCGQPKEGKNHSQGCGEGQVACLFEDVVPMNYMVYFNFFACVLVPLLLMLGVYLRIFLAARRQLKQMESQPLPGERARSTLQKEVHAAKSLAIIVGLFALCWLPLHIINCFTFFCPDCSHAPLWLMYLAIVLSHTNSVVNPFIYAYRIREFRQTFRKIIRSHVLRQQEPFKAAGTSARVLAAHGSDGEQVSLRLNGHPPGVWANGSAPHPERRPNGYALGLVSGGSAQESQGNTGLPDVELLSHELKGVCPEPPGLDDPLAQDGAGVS
# Procedure: as §1, §2
Molecule,"A1, EC50 as a ratio of that of NECA [1]","A3, EC50 as a ratio of that of NECA [2]","A2a, EC50 as a ratio of that of NECA [3]"
CCc1noc(C2OC(n3cnc4c(NCC(c5ccccc5)c5ccccc5)nc(NCCN5CCCC5)nc43)C(O)C2O)n1.O=CO.O=CO (stereo not drawn) [Example 39],4505.4,>130,30.21
CCc1noc([C@H]2O[C@@H](n3cnc4c(NCC(c5ccccc5)c5ccccc5)nc(NCCNc5ccccn5)nc43)[C@H](O)[C@@H]2O)n1.O=CO.O=CO [Example 40],>=3311.7,>130,4.89
"CCc1noc([C@H]2O[C@@H](n3cnc4c(NCC(c5ccccc5)c5ccccc5)nc(NC5CC6CCC5C6)nc43)[C@H](O)[C@@H]2O)n1.O=CO (stereo partly drawn) [Example 41, (2R,3R,4S,5S)-2-{2-(Bicyclo[2.2.1]hept-2-ylamino)-6-(2,2-diphenyl-ethylamino)-purin-9-yl}-5-(3-ethyl-[1,2,4]oxadiazol-5-yl)-tetrahydro-furan-3,4-diol formate]",2033.2,>130,23.93
"CCc1noc([C@H]2O[C@@H](n3cnc4c(NCC(c5ccccc5)c5ccccc5)nc(NCCc5ccc(OC)c(OC)c5)nc43)[C@H](O)[C@@H]2O)n1.O=CO [Example 42, (2R,3R,4S,5S)-2-{2-(2-[3,4-Dimethoxy-phenyl]-ethylamino)-6-(2,2-diphenyl-ethylamino)-purin-9-yl}-5-(3-ethyl-[1,2,4]oxadiazol-5-yl)-tetrahydro-furan-3,4-diol formate]",>6064,>130,32.77
"CCc1noc([C@H]2O[C@@H](n3cnc4c(NCC(c5ccccc5)c5ccccc5)nc(NCCO)nc43)[C@H](O)[C@@H]2O)n1.O=CO [Example 43, (2R,3R,4S,5S)-2-[6-(2,2-Diphenyl-ethylamino)-2-(2-hydroxy-ethylamino)-purin-9-yl]-5-(3-ethyl-[1,2,4]oxadiazol-5-yl)-tetrahydro-furan-3,4-diol formate]",1367.6,>130,6.85
"CCc1noc([C@H]2O[C@@H](n3cnc4c(NCC(c5ccccc5)c5ccccc5)nc(Nc5ccc(F)cc5)nc43)[C@H](O)[C@@H]2O)n1.O=CO [Example 44, (2R,3R,4S,5S)-2-[6-(2,2-Diphenyl-ethylamino)-2-(4-fluoro-phenylamino)-purin-9-yl]-5-(3-ethyl-[1,2,4]oxadiazol-5-yl)-tetrahydro-furan-3,4-diol formate]",>6131,>165,94.39
"CCc1noc(C2OC(n3cnc4c(NCC(c5ccccc5)c5ccccc5)nc(NC5CCN(Cc6ccccc6)C5)nc43)C(O)C2O)n1 [Example 45, (2R,3R,4S,5S)-2-[2-(1-Benzyl-pyrrolidin-3S-ylamino)-6-(2,2-diphenyl-ethylamino)-purin-9-yl]-5-(3-ethyl-[1,2,4]oxadiazol-5-yl)-tetrahydro-furan-3,4-diol diformate]",>3738.84,>165,29.82
CCc1noc([C@H]2O[C@@H](n3cnc4c(NCCc5ccccc5)nc(NCCc5cn(C)cn5)nc43)[C@H](O)[C@@H]2O)n1.O=CO.O=CO [Example 46],3560.13,>165,0.90
"CCc1noc(C2OC(n3cnc4c(NCCC5CCCCC5)nc(NCCc5cn(C)cn5)nc43)C(O)C2O)n1.O=CO.O=CO [Example 47, (2R,3R,4S,5S)-2-{6-(2-cyclohexylethylamino)-2-[2-(1-methyl-1H-imidazol4-yl)ethylamino]-purin-9-yl}-5-(3-ethyl-[1,2,4]oxadiazol-5-yl)-tetrahydro-furan-3,4-diol diformate]",4993.28,>165,6.93
"CCc1noc(C2OC(n3cnc4c(NCCC(C)(C)C)nc(NCCc5cn(C)cn5)nc43)C(O)C2O)n1.O=CO.O=CO [Example 48, (2R,3R,4S,5S)-2-{6-(3,3-Dimethyl-butylamino)-2-[2-(1-methyl-1H-imidazol-4-yl)-ethylamino]-purin-9-yl}-5-(3-ethyl-[1,2,4]oxadiazol-5-yl)-tetrahydro-furan-3,4-diol diformate]",16.84,>165,4.40
"(2S,3S,4R,5R)-2-(3-Cyclopropyl-[1,2,4]oxadiazol-5-yl)-5-[6-(1-ethyl-propylamino)-2-(2-(1-methyl-1H-imidazol-4-yl)-ethylamino)-purin-9-yl]-tetrahydro-furan-3,4-diol diformate [Example 38]",670.04,>87,2.02
